Source: patent US9029336B2, “Xenobiotic related induction of gene expression” (The University of Sydney, priority 1998, dated 2015)

Target: T1, hPXR (Homo sapiens, UniProt O75469)
T1 sequence (O75469 1-434): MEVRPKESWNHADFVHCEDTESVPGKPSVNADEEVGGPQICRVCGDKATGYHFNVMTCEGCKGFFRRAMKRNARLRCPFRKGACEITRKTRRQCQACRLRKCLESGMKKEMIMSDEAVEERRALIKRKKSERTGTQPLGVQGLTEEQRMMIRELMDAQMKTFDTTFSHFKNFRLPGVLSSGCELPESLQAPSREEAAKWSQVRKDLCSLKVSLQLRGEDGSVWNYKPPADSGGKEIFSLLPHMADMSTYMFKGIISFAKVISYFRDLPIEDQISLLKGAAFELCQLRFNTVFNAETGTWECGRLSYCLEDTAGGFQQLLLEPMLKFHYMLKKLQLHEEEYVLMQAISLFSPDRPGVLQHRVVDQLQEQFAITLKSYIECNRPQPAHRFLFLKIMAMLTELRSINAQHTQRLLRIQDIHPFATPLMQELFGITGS
Assay: CYP3A4 XREM reporter construct cotransfected with hPXR expression vector (pSG-hPXR) in HepG2 cells
Conditions: FIG. 4; for action on the XREM via the hPXR: HepG2, XREM reporter + hPXR expression vector
Text: The present inventors cotransfected a CYP3A4 5′-flanking region construct, containing the XREM and linked to a luciferase reporter, into HepG2 cells either with or without a hPXR expression construct (pSG-hPXR).
Many drugs induce the transcription of the CYP3A4 gene.

Row | SMILES | action on the XREM via the hPXR | induction of the XREM construct (HepG2 cells transfected with XREM reporter)
1 | CCC1(c2ccccc2)C(=O)NC(=O)NC1=O [phenobarbitone] | act on the XREM via the hPXR | 
2 | Clc1ccccc1C(c1ccccc1)(c1ccccc1)n1ccnc1 [clotrimazole] | act on the XREM via the hPXR | induced the XREM construct in a manner analogous to that that occurs in vivo
